What was measured:
[1] = test system: oxygen consumption rate (OCR); experiment: Seahorse XF24 metabolic flux analysis (oxygen consumption rate); format: cell-based
Method: Cells were cultured on XF24 plates during experiment. The mitochondrial inhibitors, oligomycin (1 μM), FCCP (0.1 μM) and Rotenone (1 μM) were added after four measurements of basal OCR as described previously.^14 • RNA Isolation, Reverse Transcription and Quantitative PCR

[2] = test system: RXR; experiment: RXR agonist treatment, expression of lipogenic and triglyceride biosynthetic genes; format: cell-based; details: FIG. 6A
Text: To address how NR3B may inhibit the lipogenic and triglyceride synthesis process, the RNA-seq data for SREBP and Chrebp, two transcriptional factors directly involved in the biosynthesis of lipid was explored. […] RXR binds to both PPARg and LXR and has the potential to regulate lipid metabolism through its interaction with these two nuclear receptors. It was explored whether RXR activation alters the expression of the lipogenic and triglyceride biosynthetic genes.

## C=C(c1ccc(C(=O)O)cc1)c1cc2c(cc1C)C(C)(C)CCC2(C)C [Bexarotene]
[1]; co-treatment with NR3B-PA, FIG. 6B
  effect on the NR3B-PA induced change of OCR: did not block
[2]
  expression of AGPAT3: induction
  expression of DGAT2: induction
  expression of Fasn: induction

## COc1cc(/C=C(\C#N)C(=O)Nc2nnc(C(F)(F)F)s2)ccc1OCc1ccc(C(F)(F)F)cc1C(F)(F)F [XCT 790]
[1]; 0.1 μM, FIG. 2A
  basal oxygen consumption rate (OCR): similar
  maximal oxygen consumption rate (OCR): similar

— US20200085853A1, “TARGETING NR3B1 FOR TREATMENT OF NASH” (University of Southern California, priority 2018, published 2020)
